Read-outs that look alike come from different tables or passages of the source.
How the values were obtained:
[1] = system: human fibroblastoid line M1 cells; settings: M1 cells preincubated overnight with 50 μg/ml synthetic pentapeptide
Excerpt: To further determine the signaling pathways involved in DNA repair induction, the inventors used the Trevigen CometAssay™ kit (Cat. No. 4250-50-K). The CometAssay is a single-cell gel electrophoresis method that can measure a variety of types of DNA damage, and repair of damage, in individual cells. The assay is based on the alkaline lysis of labile DNA at sites of damage. The unwound, relaxed DNA is able to migrate out of the cell during electrophoresis and can be visualized by SYBR Green staining.
To quantify DNA damage, cells were collected and three parallel samples were processed (a negative control, a DNA damage control (H2O2) and a sample subjected to H2O2 following exposure to various modulators of the cAMP signaling pathway). Cells are then washed in PBS. The washed cells are combined with molten low-melting agarose (Trevigen Cat. No. 4250-50-02) and transferred to a CometSlide™ (Trevigen Cat. No. 4250-100-03). The slides are immersed in lysis buffer for 30 min, on ice, in the dark. The slides are then treated with alkali buffer for 20 to 60 min at room temperature in the dark. The slides are then electrophoresed in buffer for 10 min at 20 volts, then fixed in methanol and ethanol. The slides are then stained with SYBR green (Trevigen Cat. No. 4250-50-05) solution and fluorescently imaged with a Diagnostic Instruments digitized camera, mounted on a Nikon Eclipse E400 microscope. Scion Image software is used to quantitate the comet tail intensity. Each data point is derived from tail fluorescent intensity determination in 50–100 individual cells. Data is presented as % DNA repair (the percent decrement in tail fluorescence intensity in agonist or antagonist-treated cells, relative to the intensity recorded in cells treated with H2O2 only)±SEM. (R.U.s)
To directly examine that possibility, cells were incubated overnight with synthetic peptides corresponding to the region contained within amino acids 65–79 and their ability to mount DNA repair activity in response to cAMP-elevating agents was determined. M1 cells were preincubated overnight with 50 μg/ml of synthetic peptides corresponding to the region surrounding the third allelic hypervariable region (aa 65–79) of each of the following DRβ chains: *0401 (65–79*0401) [SEQ ID NO: 5], *0402 (65–79*0402) [SEQ ID NO: 7], *0403 (65–79*0403) [SEQ ID NO: 9] or *0404(65–79*0404) [SEQ ID NO: 10]. At the end of the preincubation, cells were collected, washed and 2CA-induced DNA repair was determined as above. Table 3 (above) lists the different third allelic hypervariable region peptides used in the entire study disclosed here.
A modified method as described previously by Auger et al. [Nature Med 2:306–310 1996] was used. Briefly, cyanogen bromide activated Speharose 4B (1.5 ml) was washed with 1 mM HCl and incubated with peptides in 0.1 M NaHCO3 and 0.5 M NaCl (pH 8) buffer overnight at 4° C. For each peptide, 5 mg was used per milliliter of Sepharose. Free Sepharose groups were blocked with 0.2 M glycine (pH 8) for 2 hours at room temperature. Columns were washed at 4° C. with the following buffers: 0.1 M NaHCO3, 0.5 M NaCl (pH 8) buffer, then 0.5 M CH3COONa (pH 4) buffer and finally PBS at pH 7.5. M1 cells were plated at a density of 0.5×10^6 cells per well (6 well plate) in 10% FBS DMEM medium until 70–80% confluence. Prior to incubation with peptides, cultures were changed to serum-free DMEM medium, then evenly overlaid with 50 μg bead conjugated peptides, and incubated for the indicated period. Soluble peptides were added overnight to M1 cells at a concentration of 50 μg/ml.

calreticulin = biological target: T1, calreticulin (Homo sapiens, UniProt P27797); test: Surface plasmon resonance, calreticulin immobilized on CM5 chip, pentapeptide binding; parameters: GST (cleaved yes); made in house; host or cells: E. coli (strain provided by Dr. Michalak); settings: Biacore, 25° C., peptides 25–180 μM
T1 sequence (P27797 18-417): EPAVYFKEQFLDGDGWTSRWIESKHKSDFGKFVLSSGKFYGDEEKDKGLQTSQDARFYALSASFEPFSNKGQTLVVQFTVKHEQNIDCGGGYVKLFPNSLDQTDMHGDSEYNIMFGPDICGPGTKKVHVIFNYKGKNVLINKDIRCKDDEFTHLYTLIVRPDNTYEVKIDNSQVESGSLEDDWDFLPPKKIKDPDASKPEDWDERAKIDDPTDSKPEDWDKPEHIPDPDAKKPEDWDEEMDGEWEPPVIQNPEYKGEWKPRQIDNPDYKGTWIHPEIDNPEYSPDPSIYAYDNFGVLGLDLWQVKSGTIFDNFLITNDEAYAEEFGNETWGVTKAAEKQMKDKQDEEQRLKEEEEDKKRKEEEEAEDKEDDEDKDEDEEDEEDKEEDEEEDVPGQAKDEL
Procedure: The E. coli strain expressing GST fusion Calreticulin was kindly provided by Dr. Michalak [Baksh S et al. Protein Expr Purif., 3, 322–331, (1992)]. GST-Calreticulin was purified according to the manual of GST Gene Fusion System from Pharmacia. Factor Xa was used to liberate GST from calreticulin. In an additional step the column was treated with mono-Q to achieve >90% purity of calreticulin (MW=60 kD).
Prior to use, biosensor chips CM5 were docked into a Biacore® 2000 and preconditioned in water at 100 μl/min by applying two consecutive 20-μl pulses of 50 mM NaOH, then 10 mM HCl, and finally 0.1% SDS. Calreticulin was immobilized on CM5 surface by standard primary amine coupling [Lofas S et al. Biosensors & Bioelectronics, 10: 813–822, (1995), Johnsson B et al. J Mol Recognit., 8: 125–131, (1995), Karlsson R et al. J. Immunol. Methods, 200:121–133. (1997)]. Immobilizations were conducted at 25° C. in HBS-EP (10 mM HEPES, pH7.4, 150 mM NaCl, 1 mM EDTA, 0.005% Surfactant P-20), with a flow of 10 μl/min. […]
Shared epitope-expressing peptides potently bind to, and trigger, signaling through calreticulin. […] However, when calreticulin binding activities of the panel of pentapeptides were determined, one conspicuous exception was discovered, that is DKCLA FIG. 15 peptide #7 (Q70D).

Substance	Inhibition of cAMP-dependent (2CA-induced) DNA repair induction / genoprotective pathway by pentapeptide [1]	Binding to immobilized calreticulin (calreticulin)	Inhibition of cAMP-dependent (2CA-induced) DNA repair induction / genoprotective pathway by pentapeptide ([1]; listed as #7)
Gln Lys Arg Ala Glu (QKRAE) [pentapeptide with A74E substitution]	failed to do so	did not bind to calreticulin	–
DKCLA [Asp Lys Cys Leu Ala]	biologically inactive	bind very strongly to calreticulin	failed to do so
